Results reported in US20250263376A1, “(E)-N-CINNAMOYLAMINOALKANOLS WITH MELANOGENESIS INHIBITORY ACTIVITY” (Uniwersytet Jagiellonski, priority 2024, published 2025).

Legend:
[1] = Lipophilicity coefficient RM0 by reversed phase thin layer chromatography; assay type: physicochemical; settings: RP-18 TLC, methanol/phosphate buffer pH=7.4
Protocol: Confirmation of the identity and purity of the obtained compounds consisted in the registration and interpretation of 1H NMR and 13C NMR spectra (the spectra were recorded using an ECZR 500 MHZ (JEOL) series FT-NMR spectrophotometer), as well as the registration and interpretation of LC-MS spectra (the spectra were recorded using Acquita UPLC system (Waters) coupled with a Waters TQD mass spectrometer). The melting point was measured using the open capillary method in the IA9300 device (Electrothermal). The lipophilicity coefficient RM0 was determined by reversed phase thin layer chromatography. In the study, aluminum plates 20×20 cm covered with modified silica gel RP-18 F254 (Merck) were used as the solid phase. The mobile phase consisted of solutions of methanol and 100 mM phosphate buffer (pH=7.4), characterized by a variable methanol content ranging from 95 to 65% (v/v). The tested compounds were dissolved in methanol to obtain solutions with a concentration of 1 mg/mL. Then, […] of the solutions prepared in this way were transferred to the starting line on aluminum plates, which were then placed in chromatographic chambers previously saturated with mobile phase vapors for at least 1 hour. All activities, including the development of chromatograms, were carried out at room temperature. After developing the chromatograms to approximately 1-2 cm from the end of the plate, the plates were dried and then the distance traveled by the tested compounds was visualized under UV light (λ=254 nm). The experiment was performed in duplicate for the specified conditions. For all samples, Rf was calculated according to the formula Rf=a/b, where a—the distance traveled by the tested compound, b—the distance traveled by the mobile phase. Then, the RM parameter was calculated for all samples according to the formula RM=log (1/Rf−1), obtaining a linear relationship between the RM values and the methanol concentration in the mobile phase. The log P coefficient was also calculated using the following computer programs: ACD/ChemSketch 2020.1.2 and ChemDraw 20.0.0.41.

tyrosinase from mushroom [2] = molecular target: T1, tyrosinase from mushroom (Agaricus bisporus, UniProt C7FF04); assay: Inhibition of commercial mushroom tyrosinase, substrate L-DOPA; assay type: biochemical; settings: read-out: Tyrosinase inhibition with L-DOPA [%]
Protocol: (§1) Studies on the Inhibition of the Activity of Commercial Tyrosinase from Mushroom (Sigma: T3824)
(§2) The following substrates were used for the enzymatic reaction: L-tyrosine and L-3,4-dihyroxyphenylalanine (L-DOPA). Both substrates were used in independent experiments. According to the literature, the use of L-DOPA enables the assessment of tyrosinase diphenolase activity, and L-tyrosine—the tyrosinase monophenolase activity. The determinations were performed in 96-well plates, in each well there was placed: 170 μL or 127.5 μL of 50 mM phosphate buffer (pH=6.8) with tyrosinase (1U/well or 3U/well) and 10 μL of a solution of the tested compound in DMSO (the final concentration in the well was 500 μM, 250 μM or 125 μM). The negative control used 10 u L of pure solvent (DMSO). To initiate the reaction, an appropriate substrate was added: L-tyrosine (62.5 μL of solution in phosphate buffer) or L-DOPA (20 μL of solution in phosphate buffer). After a 25-minute incubation, the absorbance was measured at 475 nm using a microplate reader. The percentage of inhibition of tyrosinase activity was calculated using the formula: [(AC−AT)/[…], where AC—is the absorbance of the negative control, AT—is the absorbance of the sample containing the tested compound.

tyrosinase from mushroom [3] = molecular target: T1, tyrosinase from mushroom; assay: Inhibition of commercial mushroom tyrosinase, substrate L-tyrosine; assay type: biochemical; settings: read-out: Tyrosinase inhibition with L-tyrosine [%]
Protocol: as §1, §2

[4] = system: B16-F10 murine melanoma cell line; assay: Cytotoxicity (MTT) in B16-F10 murine melanoma cells; assay type: cell-based; settings: 48 h
Protocol: Cytotoxicity Assessment in the B16-F10 Murine Melanoma Cell Line (ATTC CRL-6745)—Preliminary Safety Assessment for Subsequent Studies
In order to determine safe doses of compounds for testing the inhibition of melanogenesis in a murine melanoma cell line, cytotoxicity tests were performed. Cytotoxicity was determined by the colorimetric method using MTT ([3-(4,5-dimethyl-2-thiazolyl)-2,5-diphenyl-2H-tetrazolium bromide, Sigma M5655). For this purpose, cells were transferred to 96-well plates in an amount of 5000/well. After 24 h of culture in an incubator in F10-Ham medium with 1% FBS, the tested compounds at various concentrations were added to the wells together with fresh medium. DMSO was added to the medium in a negative control. The MTT test was performed after further culture for 48 h. Then the medium was removed and the formed formazan crystals were dissolved in DMSO. The absorbance was measured at 570 nm in a plate reader and the result was compared to the control (DMSO), which was 100%. The percentage of viability was calculated using the formula: [AT/AC*100], where AT is the absorbance of the test sample, AC—absorbance of the control sample.

neuroblastoma SH-SY5Y = assay: Safety, LDH test in SH-SY5Y; assay type: cell-based; settings: 48 hours, vs Triton X-100
Protocol: In order to test the safety of the compounds, both normal human cells were used: keratinocytes (HaCaT), fibroblasts (BJ), primary melanocytes that occur in the skin, as well as human cancer cells: the hepatocarcinoma line HepG2 and the neuroblastoma line SH-SY5Y, which are considered a model for the assessment of hepatocytotoxicity and neurocytotoxicity. The concentrations of the tested compounds in the range of […] were used in the studies. The cell lines used in the research were purchased from the American Type Culture Collection (ATCC) and were cultured in media recommended by the manufacturer with the addition of FBS and antibiotics in an incubator ensuring appropriate culture conditions, i.e. humidity, temperature and CO2 concentration. Cells were seeded into multiwell plates and incubated with the test compounds for 48 hours. After this time, MTT and LDH tests were performed to assess cell viability. The MTT test is based on the ability to transform the substrate: [3-(4,5-dimethyl-2-thiazolyl)-2,5-diphenyl-2H-tetrazolium bromide into a colored product only by living cells. The absorbance at 570 nm, which corresponds to the absorption maximum for the product, is directly proportional to cell viability. The LDH test is based on testing the activity of the enzyme lactate dehydrogenase in the culture medium, which is released from cells as a result of damage to the cell membrane, e.g. as a result of cell death. Triton X-100 was used as a positive control in the test. The determination is colorimetric, the substrate is transformed by the released enzyme into a colored product, an increase in absorbance indicates a larger amount of the released enzyme, and thus confirms greater damage to cell membranes. Tables 7 and 8 present the results obtained, which correspond to the viability of cells incubated with the compounds in relation to the viability of cells constituting a control sample, i.e. incubated with the solvent (DMSO) at the same concentration as in the case of the groups tested in the MTT test or in relation to the results obtained for the Triton X-100 positive control in the LDH test. They indicate that the compounds are safe at the concentrations tested.

T1 sequence (C7FF04 2-392): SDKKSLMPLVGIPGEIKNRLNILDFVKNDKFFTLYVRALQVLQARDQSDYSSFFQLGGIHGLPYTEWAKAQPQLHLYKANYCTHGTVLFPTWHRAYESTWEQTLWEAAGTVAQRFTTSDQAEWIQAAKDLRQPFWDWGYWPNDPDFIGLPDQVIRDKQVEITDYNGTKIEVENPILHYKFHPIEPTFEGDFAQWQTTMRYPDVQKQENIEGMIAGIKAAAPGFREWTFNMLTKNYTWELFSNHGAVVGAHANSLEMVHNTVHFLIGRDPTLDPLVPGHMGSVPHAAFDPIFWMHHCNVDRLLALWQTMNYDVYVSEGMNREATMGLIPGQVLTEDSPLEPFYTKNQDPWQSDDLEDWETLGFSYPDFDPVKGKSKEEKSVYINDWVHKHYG
T1 sequence (G1K3P4 entry or part of it, further chain): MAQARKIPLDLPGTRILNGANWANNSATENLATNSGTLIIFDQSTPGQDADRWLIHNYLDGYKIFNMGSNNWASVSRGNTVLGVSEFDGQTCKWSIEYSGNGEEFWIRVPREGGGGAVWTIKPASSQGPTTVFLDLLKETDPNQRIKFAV

Compound	RM0 [1]	inhibition at 250 µM (tyrosinase from mushroom [2]) [%]	inhibition at 500 µM (tyrosinase from mushroom [3]) [%]	Cytotoxicity study in B16F10 cells, % viability ([4]; 150 μM) [%]	Cytotoxicity study in B16F10 cells, % viability ([4]; 200 μM) [%]	Cytotoxicity study in B16F10 cells, % viability ([4]; 250 μM) [%]	LDH, Neuroblastoma SH-SY5Y (neuroblastoma SH-SY5Y; 100 μM)	LDH, Neuroblastoma SH-SY5Y (neuroblastoma SH-SY5Y; 150 μM)	LDH, Neuroblastoma SH-SY5Y (neuroblastoma SH-SY5Y; 200 μM)	LDH, Neuroblastoma SH-SY5Y (neuroblastoma SH-SY5Y; 250 μM)	inhibition at 500 µM (tyrosinase from mushroom [2]) [%]	inhibition at 500 µM (tyrosinase from mushroom [2]; 500 μM) [%]	inhibition at 500 µM (tyrosinase from mushroom [3]; 500 μM) [%]
O=C(/C=C/c1ccc(Cl)cc1)NCCCCCO [Compound A-111, (2E)-3-(4-chlorophenyl)-N-(5-hydroxypentyl)prop-2-enamide]	2.79	59.9 ± 1.56	89 ± 0.98	88.2	95.6	89.7	4.90 percentage of positive control	4.61 percentage of positive control	5.98 percentage of positive control	6.77 percentage of positive control			
O=C(/C=C/c1ccccc1)NCCCCCO [Compound A-133, (2E)-N-(5-hydroxypentyl)-3-phenylprop-2-enamide]	2.15		58.6 ± 4.58	101.7	94.9	95.6	5.33 percentage of positive control	6.93 percentage of positive control	8.49 percentage of positive control	13.32 percentage of positive control	48 ± 1.83		
O=C(/C=C/c1ccc(Cl)cc1)NCCCO [H-330/21, (2E)-3-(4-chlorophenyl)-N-(3-hydroxypropyl)prop-2-enamide]	1.94			78.6	82.9	83.9	6.19 percentage of positive control	4.90 percentage of positive control	8.35 percentage of positive control	13.41 percentage of positive control		55.3 ± 1.39	82.49 ± 0.65
Cc1ccc(/C=C/C(=O)NCCCCCO)cc1 [H-415/21, (2E)-N-(5-hydroxypentyl)-3-(4-methylphenyl)prop-2-enamide]	2.49		25 ± 5.67	85.2	90.3	75.7	3.90 percentage of positive control	7.24 percentage of positive control	8.92 percentage of positive control	10.55 percentage of positive control	30.4 ± 0.88		
O=C(/C=C/c1ccccc1)NCCCCCCO [H-425/21, (E)-N-(6-hydroxyhexyl)cinnamic acid amide]	2.40			109.2	98.4	86.9						34.6 ± 2.46	44.6 ± 5.99
O=C(/C=C/c1ccc(Cl)cc1)NCCO [H-427/21, (2E)-3-(4-chlorophenyl)-N-(2-hydroxyethyl)prop-2-enamide]	1.93			73.7	80.2	77.8	3.09 percentage of positive control	4.45 percentage of positive control	5.98 percentage of positive control	8.87 percentage of positive control		55.8 ± 0.77	67.5 ± 2.66
